# Laboratory results as given in PMC10892984, “Novel Antineoplastic Inducers of Mitochondrial Apoptosis in Human Cancer Cells” (Molecules, 2024).
# Tested on: EKVX
# Test: cells
# Details: Homo sapiens, 48 h, read-out: LC50
smiles,measurement,value
"COc1cc2c(c(OC)c1OC)-c1ccc(NNC(N)=S)c(=O)cc1C(NC(C)=O)CC2 [Compound 2, N-[(aS,7S)-10-(2-carbamothioylhydrazinyl)-1,2,3-trimethoxy-9-oxo-5,6,7,9-tetrahydrobenzo[a]heptalen-7-yl]acetamide monohydrate × ⅔ (ethyl acetate)]",CC50,> 100 µM
